How the values were obtained:
[1] = test system: indomethacin induced ulcer; assay: Antiulcer activity: suppression of indomethacin induced ulcer; assay type: in vivo, mouse (ddy series male mice); settings: 100 mg/kg to the stomach 30 minutes before 20 mg/kg indomethacin p.o.; mean ulcer index vs control group, 4 hours after indomethacin
Procedure: The antiulcer activity of the compounds of this invention was determined by the following method. Four-week-old ddy series male mice were used as the test animals after they were fasted for 24 hours. Each test compound suspended in a 1% gum arabic solution was administered to the stomach of each mouse at a dose of 100 mg/kg, and then, after 30 minutes, 20 mg/kg of indomethacin was administered orally. Four hours after the administration of indomethacin, the stomach of mouse was extirpated and the length of ulcers was measured. Then, the ulcer index was determined by the total sum of the scores as calculated in Table 1. The mean ulcer index of each group was calculated and the suppression rate against the control group in terms of difference in the mean ulcer index was determined.

[2] = Reversion test
[3] = Toxicity, LD50 (P.O.); settings: in vivo, po
[4] = background; cited from earlier work

With `c1ccc2nc(CSc3ncnc4ccccc34)ccc2c1` [4-(2-Quinolylmethylthio)-quinazoline] the “Suppression rate of indomethacin induced ulcer, 100 mg/kg, p.o.” value (from here on “Suppression rate … p.o.”) [1] was 70.
For `c1ccc(CSc2ncnc3ccccc23)nc1` [4-(2-Pyridylmethylthio)-quinazoline], the “Suppression rate … p.o.” value [1] was 94, the reversion test [2] was “negative” and the LD50 [3] was > 1000 mg/kg.
In the case of `Cc1ccnc(CSc2ncnc3ccccc23)c1` [4-[(4-Methylpyridin-2-yl)methylthio]-quinazoline], the “Suppression rate … p.o.” value [1] is reported as 70.
For `c1ccc2c(SCc3ccncc3)ncnc2c1` [4-(4-Pyridylmethylthio)-quinazoline], the “Suppression rate … p.o.” value [1] was 92.
In the case of `CN/C(=N/CCSCc1nc[nH]c1C)NC#N` [Cimetidine, reference compound], the side effects [4] is listed as “gynecomatism” and the “Suppression rate … p.o.” value [1] is listed as 40.
For `COc1cc(CSc2ncnc3ccccc23)ncc1C` [4-[(4-Methoxy-5-methylpyridin-2-yl)methylthio]-quinazoline], the “Suppression rate … p.o.” value [1] was 81.
With `CCN(CC)CCSc1ncnc2ccccc12` [4-[2-(Diethylamino)ethylthio]-quinazoline] the “Suppression rate … p.o.” value [1] was 49.

— patent publication US4829069A, “4-Thioquinazoline derivatives as antiulcer agents” (Nisshin Flour Milling Co., Ltd., priority 1987, dated 1989)
